Data from patent US6462086B1, “Non-malignant disease treatment with Ras antagonists” (Ramot University Authority for Applied Research and …, priority 1999, dated 2002).
“Also recorded” adds a separate entry of the source.

Tests used:
lymphocytes of EAE mice = assay: In vitro mitogenic response (LPS, PLP 139-151 peptide) of lymph node lymphocytes of EAE mice; type: cell-based, mouse; details: 25 microM FTS; lymphocytes of EAE mice day 10
Ras = assay: Amount of Ras in spleen lymphocytes of FTS-treated SJL mice (Western immunoblot, pan-Ras Ab); type: in vivo, mouse; details: FTS 5 mg/kg/day, 48 h following treatment, densitometry
Experimental: Naive SJL mice received either the vehicle or FTS (10 mg/Kg, i.p., twice a day) for 2 days. The total amounts of Ras were then determined in cell lysates prepared as detailed in (14). Briefly, spleen lymphocytes of the control and of the FTS-treated mice were homogenized in homogenization buffer as detailed previously (14-15). Total cellular protein (50 μg) corresponding to 1.2×10^6 cells, as separated by 12.5% sodium dodecylsulfate polyacrylamide gel electrophoresis (SDS-PAGE) and blotted onto nitrocellulose membranes. hmmunoblotting with pan-Ras Ab (pan-Ras Ab-3, Calbiochem), enhanced chemiluminescense assays (ECL) and densitometric analysis were then performed as detailed previously (14-15). Lymphocytes of vehicle- and of FTS-treated (5 mg/kg/day) SJL mice were obtained from the spleens of mice, 48 h following treatment. The cells where then homogenized and the total amount of Ras was determined by Western immunobloting with pan Ras antibody (14). The apparent amount of Ras in the lymphocytes of the FTS-treated mice was lower than that of the control lymphocytes.

MRL/lpr mice [1] = assay: Grip strength test (hang time) in MRL mice; type: in vivo, mouse
Experimental: The four groups of mice were examined weekly using the grip strength test. Muscle strength was measured by the number of seconds the mouse was able to hang suspended on a stationary bar. A neurologically normal mouse is able to remain suspended (hang time) for 30 seconds or longer (17).

MRL/lpr mice [2] = assay: Open field test in MRL mice; type: in vivo, mouse; details: 20 minutes
Experimental: Saline-treated and FTS-treated MRL/lpr and saline-treated MRL/++ mice (n=5), were tested for spatial behavior in a novel environment in an open field. The apparatus comprised of a circular pool (120 cm diameter by 50 cm high) placed in a lighted room. The test was conducted during the light phase of day-night cycle. The mice were brought to the experimental room 1 hour before testing. Each mouse was removed gently from its cage, placed individually at the center of the field, and videotaped with a camcorder for 20 minutes. At the end of each session the pool was cleaned with paper towels moistened with ammonium glass cleaner to remove urinary trails. The frequency and duration of progression or stopping in the open field was analyzed during playback of the video records by software custom-written by Dr. David Eilam (Life Sciences Department, Tel-Aviv University). Total distance traveled, locomotion time, speed of moving, spatial distribution of explorations and latency for establishing a home base, and duration of staying there, were extracted.

MRL/lpr and MRL/++ mice = type: in vivo; details: FTS 5 mg/Kg/day
Experimental: FTS was synthesized as previously described (13). FTS was stored in chloroform, which was evaporated under a stream of nitrogen immediately before use. The powder was dissolved in absolute ethanol and diluted to the desired concentration in sterile saline made basic with NaOH. 200 μl of carrier solution containing 100 μg of FTS (5 mg/kg) were injected intraperitoneally (i.p.) into each mouse. Control solution was prepared at the same time starting with a chloroform solution.
Mice were treated once a day, 3-5 times a week starting from 6 or 10 weeks of age until 18 weeks of age.
Proteinuria was normalized in FTS-treated MRL/lpr mice as were grip strength and certain aspects of behavior in the open field.

[3] = tested on: TAA-induced liver cirrhosis in Wistar rats; assay: Hepatic hydroxyproline levels in TAA-induced cirrhosis; type: in vivo, rat
Experimental: Liver cirrhosis was induced in rats by intraperitoneal (i.p.) administration of TAA 200 mg/kg twice weekly for 12 weeks, as previously described (1, 2). […] The FTS was dissolved in PBS and administered i.p. 3 times a week to rats according to their assigned groups. Four groups containing 6 rats each were treated as follows. One group received TAA 200 mg/kg i.p. twice a week and i.p. injections of PBS 3 days a week for 12 weeks (cirrhotic controls for the FTS-treated groups). A second group received TAA for 12 weeks and FTS 5 mg/kg, 3 times a week. […] The two control groups consisted of one that received PBS injections without TAA for 12 weeks (normal controls) and a group of 5 rats that received only FTS 5 mg/kg i.p. for 12 weeks to monitor the appearance of adverse effects. Quantitative determination of hepatic hydroxyproline levels was performed as previously described (2). The hydroxyproline levels were analyzed twice and separately for each liver.

Wistar rats = type: in vivo
Experimental: The FTS was dissolved in PBS and administered i.p. 3 times a week to rats according to their assigned groups. Four groups containing 6 rats each were treated as follows. One group received TAA 200 mg/kg i.p. twice a week and i.p. injections of PBS 3 days a week for 12 weeks (cirrhotic controls for the FTS-treated groups). A second group received TAA for 12 weeks and FTS 5 mg/kg, 3 times a week. […] The two control groups consisted of one that received PBS injections without TAA for 12 weeks (normal controls) and a group of 5 rats that received only FTS 5 mg/kg i.p. for 12 weeks to monitor the appearance of adverse effects.
In order to monitor the presence of adverse effects caused by the prolonged administration of FTS, a control group received the Ras antagonist for 12 weeks.

[4] = tested on: carotid balloon injury in Wistar rats; assay: Rat carotid balloon injury, intimal hyperplasia (morphometry); type: in vivo
Experimental: Group A: Four rats received daily intraperitoneal injections of FTS (5 mg/Kg) starting from the day of injury induction until sacrifice, 14 days later.
Group B: Four rats received daily intraperitoneal injections of control vehicle starting from the day of injury induction until sacrifice, 14 days later.
Animals were anesthetized by intraperitoneal injection of Ketamin (80 mg/Kg) and Xylazine (5 mg/Kg). […] Briefly, a balloon catheter (2F Fogarty) was passed through the external carotid into the aorta; the balloon was inflated with sufficient water to distend the common carotid artery and then pulled back to the external carotid. This procedure was repeated three times, and then the catheter was removed. After 14 days, the animals were sacrificed and the right and left carotid arteries were taken out and fixed in 4% paraformaldehyde until embedding in Paraffin. The arteries were cut in 10 um sections and stained with H&E and computer-assisted morphometric analyses were performed. The tested parameters were: intimal area, medial area, intimal/medial ratio and lumen area. Additionally, the %CSAN-N (% cross sectional area neointimal-neointamal) was calculated [IEL area-Lumen area]×100/IEL (a measure of the degree to which the IEL area is reduced by neointimal with greater normalization of the effect of changes in vessel wall size. Vasular remodeling process were further evaluated by computing the amount of plaque relative to the EEL (external elastic lamina) area.

SMILES: CC(C)=CCC/C(C)=C/CC/C(C)=C/CSc1ccccc1C(=O)O [FTS, farnesyl thiosalicylic acid]
- suppression of the LPS mitogenic response (lymphocytes of EAE mice): 91%
- suppression of the PLP mitogenic response (lymphocytes of EAE mice): 62%
- reduction in the amount of Ras in lymphocytes (Ras): 36±7%
- grip strength (hang time on a horizontal bar) (MRL/lpr mice [1]; MRL/++ mice): trend for FTS to impair performance
- grip strength (hang time on a horizontal bar) (MRL/lpr mice [1]; MRL/lpr mice, 12-17 weeks of age): significantly impaired in this test from week 14 compared to the FTS-treated group; also recorded: normalized
- open field: time spent in the center (MRL/lpr mice [2]): significant effect on the time spent in the center
- open field: total distance covered (MRL/lpr mice [2]): no effect on the total distance covered
- toxicity (MRL/lpr and MRL/++ mice): no significant toxicity
- hepatic hydroxyproline levels ([3]; TAA plus FTS, TAA alone 7.7±0.9): 3.8±0.5 mg/g protein
- hepatic hydroxyproline levels ([3]; control group treated with FTS only): 1.6±0.1 mg/g protein
- mortality and adverse effects (Wistar rats; FTS 5 mg/kg alone for 12 weeks): no mortality or major adverse effects
- survival after 12 weeks (Wistar rats; TAA+FTS, n=6): none of the rats died
- reduction of intimal area ([4]; FTS 5 mg/Kg i.p. daily 14 days vs control): 76%
- medial area ([4]; FTS 5 mg/Kg i.p. daily 14 days, control 1.2±0.14): 0.91 mm^2
- Intimal area ([4]; FTS 5 mg/Kg i.p. daily 14 days, control 1.61): 0.38 mm^2
- luminal area ([4]; FTS 5 mg/Kg i.p. daily 14 days, control 2.30): 1.45±0.34 mm^2
- %CSAN-N ([4]; FTS 5 mg/Kg i.p. daily 14 days, control 52.4±7.4): 15.5±4.3%
